Measurements published in article PMC11864979, “First-in-class ultralong-target-residence-time p38α inhibitors as a mitosis-targeted therapy for colorectal cancer” (Nature Cancer, 2025).
Like-named read-outs stand apart in the source and are kept apart here.

Legend:
Experiment in all cases: selectivity profiling in a panel of 340 wild-type kinases (Reaction Biology Europe)
Type in all cases: binding
340 wild-type kinases [1] = target: T1, 340 wild-type kinases (Homo sapiens, UniProt P09619)
T1 construct: purchased Reaction Biology Europe

340 wild-type kinases [2] = target: T2, 340 wild-type kinases (Homo sapiens, UniProt P78527)
T2 construct: purchased Reaction Biology Europe

340 wild-type kinases [3] = target: T3, 340 wild-type kinases (Homo sapiens, UniProt Q12866)
T3 construct: purchased Reaction Biology Europe
T3 sequence (Q12866 21-999): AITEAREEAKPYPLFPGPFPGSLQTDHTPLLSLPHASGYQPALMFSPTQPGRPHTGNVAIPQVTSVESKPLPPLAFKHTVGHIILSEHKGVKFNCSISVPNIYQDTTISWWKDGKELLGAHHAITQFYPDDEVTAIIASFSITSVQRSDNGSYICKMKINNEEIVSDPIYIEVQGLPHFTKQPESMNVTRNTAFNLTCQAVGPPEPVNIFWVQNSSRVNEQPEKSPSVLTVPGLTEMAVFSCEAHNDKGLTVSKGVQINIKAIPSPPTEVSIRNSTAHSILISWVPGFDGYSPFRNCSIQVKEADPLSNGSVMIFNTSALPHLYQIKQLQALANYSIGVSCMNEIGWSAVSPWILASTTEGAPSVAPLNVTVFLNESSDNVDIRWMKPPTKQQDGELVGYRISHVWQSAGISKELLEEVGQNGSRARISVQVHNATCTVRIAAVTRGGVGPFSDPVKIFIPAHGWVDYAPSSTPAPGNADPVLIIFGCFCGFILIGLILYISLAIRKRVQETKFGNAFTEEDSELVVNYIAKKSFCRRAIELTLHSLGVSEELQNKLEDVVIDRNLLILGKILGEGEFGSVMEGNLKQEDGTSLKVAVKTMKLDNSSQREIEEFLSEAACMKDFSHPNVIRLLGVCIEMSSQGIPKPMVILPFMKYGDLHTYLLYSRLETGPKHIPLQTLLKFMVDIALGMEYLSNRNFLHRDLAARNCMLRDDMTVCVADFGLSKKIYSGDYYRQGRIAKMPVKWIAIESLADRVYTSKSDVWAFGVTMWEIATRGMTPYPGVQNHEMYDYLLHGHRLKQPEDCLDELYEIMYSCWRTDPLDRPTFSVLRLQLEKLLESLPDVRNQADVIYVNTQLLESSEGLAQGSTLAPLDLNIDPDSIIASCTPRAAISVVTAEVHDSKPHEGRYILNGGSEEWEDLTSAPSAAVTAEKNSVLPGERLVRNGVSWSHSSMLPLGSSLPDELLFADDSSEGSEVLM

340 wild-type kinases [4] = target: T4, 340 wild-type kinases (Homo sapiens, UniProt Q16513)
T4 construct: purchased Reaction Biology Europe

340 wild-type kinases [5] = target: T5, 340 wild-type kinases (Homo sapiens, UniProt Q96L34)
T5 construct: purchased Reaction Biology Europe
T5 sequence (Q96L34 1-752): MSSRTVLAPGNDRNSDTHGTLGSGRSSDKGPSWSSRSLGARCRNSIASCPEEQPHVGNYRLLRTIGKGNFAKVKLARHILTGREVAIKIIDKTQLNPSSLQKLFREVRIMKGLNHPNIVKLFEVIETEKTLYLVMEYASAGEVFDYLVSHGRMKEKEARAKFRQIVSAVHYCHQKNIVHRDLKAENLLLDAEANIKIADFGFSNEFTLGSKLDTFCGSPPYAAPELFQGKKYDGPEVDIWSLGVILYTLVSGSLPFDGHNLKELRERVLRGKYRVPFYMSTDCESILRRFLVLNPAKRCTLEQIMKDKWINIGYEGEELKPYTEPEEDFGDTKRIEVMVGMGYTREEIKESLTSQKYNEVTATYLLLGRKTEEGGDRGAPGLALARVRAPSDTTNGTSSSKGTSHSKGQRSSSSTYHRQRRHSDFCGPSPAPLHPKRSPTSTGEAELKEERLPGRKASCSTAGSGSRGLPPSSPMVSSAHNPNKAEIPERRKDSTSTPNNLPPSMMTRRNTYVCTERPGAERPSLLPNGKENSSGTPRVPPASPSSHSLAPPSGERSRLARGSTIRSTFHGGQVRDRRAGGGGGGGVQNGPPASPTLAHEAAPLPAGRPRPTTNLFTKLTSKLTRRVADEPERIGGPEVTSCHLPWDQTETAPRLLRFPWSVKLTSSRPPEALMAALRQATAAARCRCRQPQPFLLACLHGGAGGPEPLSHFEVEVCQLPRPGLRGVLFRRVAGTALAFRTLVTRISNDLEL

340 wild-type kinases [6] = target: T6, 340 wild-type kinases (Homo sapiens, UniProt Q9P289)
T6 construct: purchased Reaction Biology Europe
T6 sequence (Q9P289 whole entry): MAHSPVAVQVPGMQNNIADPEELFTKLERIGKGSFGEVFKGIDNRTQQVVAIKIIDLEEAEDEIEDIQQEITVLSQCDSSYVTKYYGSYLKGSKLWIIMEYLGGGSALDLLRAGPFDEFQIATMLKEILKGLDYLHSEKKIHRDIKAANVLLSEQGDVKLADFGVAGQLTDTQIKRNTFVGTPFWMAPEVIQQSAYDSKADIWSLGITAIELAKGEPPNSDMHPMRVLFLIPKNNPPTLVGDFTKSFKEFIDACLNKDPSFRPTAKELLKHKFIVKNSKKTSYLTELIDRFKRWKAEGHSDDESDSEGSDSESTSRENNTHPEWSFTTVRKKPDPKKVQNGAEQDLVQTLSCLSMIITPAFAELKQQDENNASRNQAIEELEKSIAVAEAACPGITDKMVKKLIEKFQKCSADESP

T2 sequence (P78527 whole entry): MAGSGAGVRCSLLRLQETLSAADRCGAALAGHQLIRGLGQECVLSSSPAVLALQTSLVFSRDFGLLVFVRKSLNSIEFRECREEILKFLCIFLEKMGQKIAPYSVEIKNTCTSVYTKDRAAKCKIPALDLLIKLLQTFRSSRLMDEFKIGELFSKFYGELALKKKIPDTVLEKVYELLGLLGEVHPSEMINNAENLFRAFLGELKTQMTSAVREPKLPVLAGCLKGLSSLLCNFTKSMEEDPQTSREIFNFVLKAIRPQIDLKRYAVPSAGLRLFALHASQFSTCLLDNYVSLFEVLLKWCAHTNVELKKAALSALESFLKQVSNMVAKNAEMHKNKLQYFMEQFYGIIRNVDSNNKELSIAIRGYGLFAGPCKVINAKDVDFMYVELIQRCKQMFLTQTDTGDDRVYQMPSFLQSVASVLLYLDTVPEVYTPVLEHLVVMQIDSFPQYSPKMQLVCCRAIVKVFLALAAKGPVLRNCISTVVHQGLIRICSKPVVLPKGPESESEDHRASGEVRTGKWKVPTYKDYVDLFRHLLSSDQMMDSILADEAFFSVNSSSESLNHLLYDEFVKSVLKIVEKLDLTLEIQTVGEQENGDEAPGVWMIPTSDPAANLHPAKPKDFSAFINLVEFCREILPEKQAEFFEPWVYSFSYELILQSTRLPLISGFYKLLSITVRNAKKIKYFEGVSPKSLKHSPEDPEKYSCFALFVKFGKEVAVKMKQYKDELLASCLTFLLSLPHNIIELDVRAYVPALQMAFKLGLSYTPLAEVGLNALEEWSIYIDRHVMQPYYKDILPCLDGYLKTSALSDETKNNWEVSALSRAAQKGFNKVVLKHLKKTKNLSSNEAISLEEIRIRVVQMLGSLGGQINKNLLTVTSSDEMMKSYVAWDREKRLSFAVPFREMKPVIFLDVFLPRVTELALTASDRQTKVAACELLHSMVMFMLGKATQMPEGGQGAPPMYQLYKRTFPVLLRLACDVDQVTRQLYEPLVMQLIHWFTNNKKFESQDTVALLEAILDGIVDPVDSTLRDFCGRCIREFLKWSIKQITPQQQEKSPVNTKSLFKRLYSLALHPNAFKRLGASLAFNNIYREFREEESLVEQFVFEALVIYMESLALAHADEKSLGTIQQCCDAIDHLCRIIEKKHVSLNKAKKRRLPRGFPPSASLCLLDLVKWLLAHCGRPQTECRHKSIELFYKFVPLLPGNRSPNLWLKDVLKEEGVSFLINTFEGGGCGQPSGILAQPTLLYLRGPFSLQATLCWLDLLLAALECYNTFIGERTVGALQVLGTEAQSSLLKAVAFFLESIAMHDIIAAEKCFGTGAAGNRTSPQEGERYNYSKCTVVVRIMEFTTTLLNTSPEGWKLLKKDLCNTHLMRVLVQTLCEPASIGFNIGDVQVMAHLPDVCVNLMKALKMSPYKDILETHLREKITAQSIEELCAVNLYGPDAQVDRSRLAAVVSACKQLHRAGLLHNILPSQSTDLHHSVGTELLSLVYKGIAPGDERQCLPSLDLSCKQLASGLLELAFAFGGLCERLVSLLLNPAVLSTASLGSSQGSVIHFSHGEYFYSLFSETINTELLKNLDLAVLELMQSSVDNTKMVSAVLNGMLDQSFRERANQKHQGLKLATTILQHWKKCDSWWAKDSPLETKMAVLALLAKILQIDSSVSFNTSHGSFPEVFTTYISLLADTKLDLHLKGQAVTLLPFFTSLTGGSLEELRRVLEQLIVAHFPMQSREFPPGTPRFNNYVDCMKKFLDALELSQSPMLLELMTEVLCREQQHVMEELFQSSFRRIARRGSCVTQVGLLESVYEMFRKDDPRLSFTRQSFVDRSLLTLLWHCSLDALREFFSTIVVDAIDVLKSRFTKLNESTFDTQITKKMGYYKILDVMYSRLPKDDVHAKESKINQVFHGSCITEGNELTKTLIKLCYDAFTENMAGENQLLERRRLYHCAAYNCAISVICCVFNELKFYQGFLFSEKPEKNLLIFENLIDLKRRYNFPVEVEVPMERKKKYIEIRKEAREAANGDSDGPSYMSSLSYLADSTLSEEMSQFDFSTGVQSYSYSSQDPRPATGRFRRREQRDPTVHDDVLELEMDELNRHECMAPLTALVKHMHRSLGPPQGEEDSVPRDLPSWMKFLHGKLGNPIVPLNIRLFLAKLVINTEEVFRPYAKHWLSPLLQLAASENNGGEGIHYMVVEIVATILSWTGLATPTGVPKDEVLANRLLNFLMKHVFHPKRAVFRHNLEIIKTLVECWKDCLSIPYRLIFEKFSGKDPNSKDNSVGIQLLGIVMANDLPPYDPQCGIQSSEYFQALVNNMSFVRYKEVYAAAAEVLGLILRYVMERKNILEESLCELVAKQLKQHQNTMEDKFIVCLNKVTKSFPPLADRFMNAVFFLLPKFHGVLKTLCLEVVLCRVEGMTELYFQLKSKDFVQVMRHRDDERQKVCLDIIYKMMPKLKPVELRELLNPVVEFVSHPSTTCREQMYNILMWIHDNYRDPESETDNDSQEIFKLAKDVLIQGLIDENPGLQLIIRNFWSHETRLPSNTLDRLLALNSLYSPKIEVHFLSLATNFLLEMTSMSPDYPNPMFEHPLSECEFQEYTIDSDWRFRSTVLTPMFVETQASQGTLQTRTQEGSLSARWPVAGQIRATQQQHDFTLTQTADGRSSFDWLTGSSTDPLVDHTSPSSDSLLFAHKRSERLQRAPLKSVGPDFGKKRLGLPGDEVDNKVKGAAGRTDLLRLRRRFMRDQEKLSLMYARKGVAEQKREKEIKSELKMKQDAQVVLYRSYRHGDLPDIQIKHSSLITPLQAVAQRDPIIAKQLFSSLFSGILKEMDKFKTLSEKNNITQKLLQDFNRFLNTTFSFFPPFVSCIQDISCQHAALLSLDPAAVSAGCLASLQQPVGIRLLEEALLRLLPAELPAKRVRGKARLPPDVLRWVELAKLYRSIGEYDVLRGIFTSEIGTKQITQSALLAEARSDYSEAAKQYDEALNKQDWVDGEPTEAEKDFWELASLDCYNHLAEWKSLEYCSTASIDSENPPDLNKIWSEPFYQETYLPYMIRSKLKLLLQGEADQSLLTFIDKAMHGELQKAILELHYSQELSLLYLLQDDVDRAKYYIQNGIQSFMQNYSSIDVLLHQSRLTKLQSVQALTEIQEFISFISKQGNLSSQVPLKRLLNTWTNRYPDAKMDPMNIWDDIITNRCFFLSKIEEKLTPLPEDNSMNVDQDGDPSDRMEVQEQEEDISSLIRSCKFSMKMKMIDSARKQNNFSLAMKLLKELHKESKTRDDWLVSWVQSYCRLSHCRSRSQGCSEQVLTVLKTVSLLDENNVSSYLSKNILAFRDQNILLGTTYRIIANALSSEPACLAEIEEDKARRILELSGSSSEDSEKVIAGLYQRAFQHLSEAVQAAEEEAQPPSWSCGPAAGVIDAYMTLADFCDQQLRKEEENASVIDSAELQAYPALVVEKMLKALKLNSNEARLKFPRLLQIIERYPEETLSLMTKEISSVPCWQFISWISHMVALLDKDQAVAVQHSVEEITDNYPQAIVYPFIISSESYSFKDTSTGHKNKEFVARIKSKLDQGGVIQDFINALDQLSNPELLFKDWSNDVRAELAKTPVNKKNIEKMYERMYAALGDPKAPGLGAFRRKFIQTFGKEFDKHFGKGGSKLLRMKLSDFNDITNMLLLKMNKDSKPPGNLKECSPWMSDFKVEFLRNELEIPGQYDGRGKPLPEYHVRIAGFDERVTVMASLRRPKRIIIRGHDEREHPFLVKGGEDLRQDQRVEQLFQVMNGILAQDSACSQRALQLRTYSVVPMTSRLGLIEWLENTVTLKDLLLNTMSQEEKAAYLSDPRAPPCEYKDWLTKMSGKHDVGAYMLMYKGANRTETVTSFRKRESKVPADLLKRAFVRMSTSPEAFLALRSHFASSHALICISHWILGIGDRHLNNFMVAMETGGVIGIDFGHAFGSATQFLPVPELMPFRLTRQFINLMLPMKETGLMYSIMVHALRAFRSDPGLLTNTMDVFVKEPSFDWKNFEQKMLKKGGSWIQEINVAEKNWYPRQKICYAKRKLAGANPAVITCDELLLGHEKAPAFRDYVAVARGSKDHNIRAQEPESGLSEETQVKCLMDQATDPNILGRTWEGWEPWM

CNC(=O)c1ccc2c(c1)C(=O)c1ccc(Nc3ccc(F)c(NC(=O)C4CC4)c3)cc1CC2 [Compound 2015]
remaining activity at 0.2 µM (340 wild-type kinases [1]; 0.2 µM 2015, read-out: PDGFRbeta residual activity): 101%
remaining activity at 1 µM (340 wild-type kinases [1]; 1 µM 2015, read-out: PDGFRbeta residual activity): 101%
remaining activity at 0.2 µM (340 wild-type kinases [1]; PDGFRbeta, 0.2 µM, read-out: residual activity): 101%
remaining activity at 1 µM (340 wild-type kinases [1]; PDGFRbeta, 1 µM, read-out: residual activity): 101%
remaining activity at 0.2 µM (340 wild-type kinases [2]; 0.2 µM 2015, read-out: DNAPK residual activity): 111%
remaining activity at 1 µM (340 wild-type kinases [2]; 1 µM 2015, read-out: DNAPK residual activity): 99.6%
remaining activity at 0.2 µM (340 wild-type kinases [2]; DNAPK, 0.2 µM, read-out: residual activity): 111%
remaining activity at 1 µM (340 wild-type kinases [2]; DNAPK, 1 µM, read-out: residual activity): 99.6%
remaining activity at 0.2 µM (340 wild-type kinases [3]; 0.2 µM 2015, read-out: MERTK residual activity): 88.3%
remaining activity at 1 µM (340 wild-type kinases [3]; 1 µM 2015, read-out: MERTK residual activity): 97%
remaining activity at 0.2 µM (340 wild-type kinases [3]; MERTK, 0.2 µM, read-out: residual activity): 88.3%
remaining activity at 1 µM (340 wild-type kinases [3]; MERTK, 1 µM, read-out: residual activity): 97%
remaining activity at 0.2 µM (340 wild-type kinases [4]; 0.2 µM 2015, read-out: PRK2 residual activity): 89.2%
remaining activity at 1 µM (340 wild-type kinases [4]; 1 µM 2015, read-out: PRK2 residual activity): 91.1%
remaining activity at 0.2 µM (340 wild-type kinases [4]; PRK2, 0.2 µM, read-out: residual activity): 89.2%
remaining activity at 1 µM (340 wild-type kinases [4]; PRK2, 1 µM, read-out: residual activity): 91.1%
remaining activity at 0.2 µM (340 wild-type kinases [5]; 0.2 µM 2015, read-out: MARK4 residual activity): 94.8%
remaining activity at 1 µM (340 wild-type kinases [5]; 1 µM 2015, read-out: MARK4 residual activity): 84.1%
remaining activity at 0.2 µM (340 wild-type kinases [5]; MARK4, 0.2 µM, read-out: residual activity): 94.8%
remaining activity at 1 µM (340 wild-type kinases [5]; MARK4, 1 µM, read-out: residual activity): 84.1%
remaining activity at 0.2 µM (340 wild-type kinases [6]; 0.2 µM 2015, read-out: MST4 residual activity): 78.4%
remaining activity at 1 µM (340 wild-type kinases [6]; 1 µM 2015, read-out: MST4 residual activity): 69.9%
remaining activity at 0.2 µM (340 wild-type kinases [6]; MST4, 0.2 µM, read-out: residual activity): 78.3%
remaining activity at 1 µM (340 wild-type kinases [6]; MST4, 1 µM, read-out: residual activity): 69.9%
